# Data reported in US7115650B1, “Compositions for improving fertility” (Ferring BV, priority 1999, dated 2006).
# What was measured:
# Format in all cases: in vivo, rat
# [1] = system: obese Zucker Diabetic Fatty (ZDF) female rats; assay: Estrous cyclicity by observation of vaginal smear in animal model of human infertility; details: oral 10 mg/kg/day, untreated obese females had abnormal cyclicity vs lean
# Protocol: (§1) Obese Zucker Diabetic Fatty males and females as well as fertile lean males and females were put into individual cages and fed with Purina 5008 (6.5% fat). At 6.5 weeks of life, obese rats were randomized into 3 groups: • 1. Control group—obese ZDF rats (n=8) treated with vehicle. • 2. Once-daily treatment group—obese ZDF rats (n=8) given the compound of Example 1B orally once daily (10 mg/kg/day). • 3. Twice-daily treatment group—obese ZDF rats (n=8) given the compound of Example 1B orally twice daily (10 mg/kg/day). Methods
# (§2) Blood and pituitaries of lean and obese rats were collected at the end of the study. Pituitary LH and plasma testosterone concentrations were measured by radioimmunoassay. Estrous cyclicity was evaluated by observation of vaginal smear.
# [2] = system: obese Zucker Diabetic Fatty (ZDF) male rats; assay: Plasma testosterone by radioimmunoassay in animal model of human infertility; details: treated obese ZDF males, oral 10 mg/kg/day, end of study; obese 1145±328, lean 2410±239; NS vs lean
# Protocol: as §1, §2
# [3] = system: obese Zucker Diabetic Fatty (ZDF) rats; assay: Pituitary LH content by radioimmunoassay in animal model of human infertility; details: treated obese ZDF rats, oral 10 mg/kg/day, end of study; obese control 8.1±0.6, lean 6.3±0.6; p<0.05 vs control
# Protocol: as §1, §2
smiles,measurement,setting,value
"CC(C)(C)[C@H](N)C(=O)N1CCC[C@H]1C#N [Example 1B, (2S)-N-((2′S)-2′-amino-3′,3′-dimethylbutanoyl)pyrrolidine-2-carbonitrile]",Estrous cyclicity,[1],normalised estrous cyclicity
same,Plasma testosterone level,[2],2390 ± 759 pg/mL
same,Pituitary LH content,[3],5.2±0.4 μg/pituitary
